Assay [1] deals with Human immunodeficiency virus type 1 reverse transcriptase (Human immunodeficiency virus 1, UniProt Q72547). As to the kind of experiment: Compound was evaluated for inhibition of WT HIV type I reverse transcriptase.
Assay [2] deals with Human immunodeficiency virus type 1 reverse transcriptase (Human immunodeficiency virus 1) (UniProt Q72547). As to the kind of experiment: Percent inhibitory activity against wild type (WT) HIV type I reverse transcriptase at a concentration of 1 uM.
Assay [3] deals with Human immunodeficiency virus type 1 reverse transcriptase (Human immunodeficiency virus 1), Q72547 [Y181C]. As to the kind of experiment: Percent inhibitory activity against Y181C HIV type I reverse transcriptase at a concentration of 1 uM.
Assay [4] addresses Human immunodeficiency virus type 1 reverse transcriptase (Human immunodeficiency virus 1, UniProt Q72547, Y181C). As to the kind of experiment: Compound was evaluated for inhibition of Y181C HIV type I reverse transcriptase.

Compound `C=Cc1ccnc2c1NC(=O)c1cccnc1N2C1CC1` returned an IC50 in assay [1] of 110 nM. Further, the inhibition in assay [2] amounted to 83%; in assay [3] it was 16%.

In the case of `CCN1c2ncccc2C(=O)Nc2c(C3OCCCO3)cc(-c3cccc(OC)c3)nc21`, the inhibition was determined as 40% in assay [2] and 7% in assay [3].

For the compound `O=C1Nc2c(CCc3ccccc3)ccnc2N(C2CC2)c2ncccc21`, the inhibition came to 36% in assay [2] and 38% in assay [3].

On to `Cc1ccc(OCc2ccnc3c2NC(=O)c2cccnc2N3C2CC2)cc1`, for which the IC50 in assay [1] stood at 580 nM. For the same compound, the inhibition in assay [2] amounted to 55%; in assay [3], 33%.

For the compound `CCN1c2ncccc2C(=O)Nc2c(COc3ccccc3)cc(O)nc21`, the inhibition amounted to 33% in assay [2] and 20% in assay [3].

`O=C1Nc2c(CN3CCOCC3)ccnc2N(C2CC2)c2ncccc21` showed an IC50 in assay [1] of 1030 nM. The inhibition in assay [2] is 50%; in assay [3], 21%.

In the case of `Nc1ccc(OCc2ccnc3c2NC(=O)c2cccnc2N3C2CC2)cc1`, the IC50 in assay [4] came to 1010 nM; in assay [1] it was 100 nM. The inhibition amounted to 91% in assay [2] and 49% in assay [3].

As to `CCN1c2ncccc2C(=O)Nc2c(COCc3ccccc3)cc(-c3cccc(OC)c3)nc21`, the inhibition in assay [2] turned out to be 0%; in assay [3], 12%.

`CCN1c2ncccc2C(=O)Nc2c(C=O)cc(O)nc21`: the values for the inhibition in assay [2] and in assay [3] were 36% and 6%, respectively.

Turning to `O=C1Nc2c(COc3ccccc3)ccnc2N(C2CC2)c2ncccc21`, the IC50 worked out at 2580 nM in assay [4] and 120 nM in assay [1]. Also, the inhibition in assay [2] was 78%; in assay [3] it was 26%.

Take `COc1ccc(O)c(Cc2ccnc3c2NC(=O)c2cccnc2N3C2CC2)c1`: in assay [1], the IC50 was determined as 850 nM. Further, the figures for the inhibition in assay [2] and in assay [3] were 42% and 47%, respectively.

Regarding `O=C1Nc2c(CN3CCCCC3)ccnc2N(C2CC2)c2ncccc21`, the inhibition is 29% in assay [2] and 20% in assay [3].

`CCN1c2ncccc2C(=O)Nc2c(CO)cc(-c3cccc(OC)c3)nc21`: the inhibition in assay [2] was 16%; in assay [3], 0%.

For `O=C1Nc2c(Cc3ccccc3O)ccnc2N(C2CC2)c2ncccc21`, the IC50 in assay [4] was 1120 nM; in assay [1] it was 190 nM. The inhibition in assay [2] stood at 75%; in assay [3], 50%.

Take `CCN1c2ncccc2C(=O)Nc2c(Cc3ccccc3)cc(=O)[nH]c21`: the values for the IC50 in assay [4] and in assay [1] were 1300 nM and 340 nM, respectively.

As to `O=C1Nc2c(/C=C/c3ccccc3)ccnc2N(C2CC2)c2ncccc21`, the inhibition in assay [2] is 23%; in assay [3], 25%.

In assay [1], `CCN1c2ncccc2C(=O)Nc2c(COCc3ccccc3)cc(OC)nc21` displayed an IC50 of 920 nM. Besides, the inhibition turned out to be 42% in assay [2] and 26% in assay [3].

In the case of `N#Cc1ccc(OCc2ccnc3c2NC(=O)c2cccnc2N3C2CC2)cc1`, in assay [1], the IC50 is 410 nM. The inhibition in assay [2] was 57%; in assay [3], 11%.

`O=C1Nc2c(Cc3ccccc3)ccnc2N(C2CC2)c2ncccc21` showed an IC50 in assay [1] of 140 nM. In addition, the inhibition in assay [2] was found to be 73%; in assay [3], 8%.

As to `CCN1c2ncccc2C(=O)Nc2c(C=O)cc(OC)nc21`, the 50% inhibitory concentration (IC50) in assay [1] is 240 nM. Besides, the values for the inhibition in assay [2] and in assay [3] were 78% and 38%, respectively.

`CCN1c2ncccc2C(=O)Nc2c(CO)cc(O)nc21` displayed an IC50 in assay [1] of 420 nM. The figures for the inhibition in assay [2] and in assay [3] were 51% and 25%, respectively.

`O=C1Nc2c(COc3ccccc3Cl)ccnc2N(C2CC2)c2ncccc21`: the IC50 in assay [1] turned out to be 3050 nM. Further, the inhibition in assay [2] stood at 30%; in assay [3], 20%.

For `CCOC(=O)CCc1ccnc2c1NC(=O)c1cccnc1N2C1CC1`, the results for the inhibition in assay [2] and in assay [3] were 13% and 11%, respectively.

As to `CCOC(=O)/C=C/c1ccnc2c1NC(=O)c1cccnc1N2C1CC1`, the values for the inhibition in assay [2] and in assay [3] were 27% and 22%, respectively.

Take `Cc1ccccc1OCc1ccnc2c1NC(=O)c1cccnc1N2C1CC1`: the midpoint of inhibition in assay [1], the IC50, lay at 290 nM. For the same compound, the inhibition was found to be 65% in assay [2] and 28% in assay [3].

Regarding `CCN1c2ncccc2C(=O)Nc2c(Cc3ccccc3)cc(-c3cccc(OC)c3)nc21`, the inhibition in assay [2] amounted to 20%; in assay [3], 15%.

In the case of `CCN1c2ncccc2C(=O)Nc2c(C=O)cc(-c3cccc(OC)c3)nc21`, the IC50 was 420 nM in assay [4] and 330 nM in assay [1]. Besides, the inhibition in assay [2] worked out at 71%; in assay [3], 63%.

Regarding `O=C(O)CCc1ccnc2c1NC(=O)c1cccnc1N2C1CC1`, the results for the inhibition in assay [2] and in assay [3] were 2% and 8%, respectively.

For `CCN1c2ncccc2C(=O)Nc2c(Cc3ccccc3)cc(OC)nc21`, the inhibition in assay [2] and in assay [3] was 0% in each case.

The compound `COc1ccc(OCc2ccnc3c2NC(=O)c2cccnc2N3C2CC2)cc1` showed a concentration for half-maximal inhibition (IC50) in assay [1] of 1040 nM. In addition, the results for the inhibition in assay [2] and in assay [3] were 47% and 41%, respectively.

`O=C1Nc2c(COc3ccc([N+](=O)[O-])cc3)ccnc2N(C2CC2)c2ncccc21` returned an IC50 in assay [1] of 1130 nM. Moreover, the inhibition in assay [2] is 43%; in assay [3] it was 12%.

Compound `O=C1Nc2c(CSc3ccccc3)ccnc2N(C2CC2)c2ncccc21` returned an IC50 in assay [1] of 1030 nM. The inhibition in assay [2] was found to be 44%; in assay [3] it was 14%.

In the case of `O=C1Nc2c(COCCCc3ccccc3)ccnc2N(C2CC2)c2ncccc21`, the figures for the inhibition in assay [2] and in assay [3] were 29% and 20%, respectively.

In assay [1], `CCN1c2ncccc2C(=O)Nc2c(C3OCCCO3)cc(OC)nc21` showed an IC50 of 800 nM. Also, the inhibition in assay [2] was 52%; in assay [3], 22%.

In the case of `O=C1Nc2c(CO)ccnc2N(C2CC2)c2ncccc21`, the figures for the inhibition in assay [2] and in assay [3] were 34% and 4%, respectively.

As for `CCN1c2ncccc2C(=O)Nc2c(C3OCCCO3)cc(O)nc21`, the inhibition in assay [2] and in assay [3] was 0% in each case.

In turn, `O=C1Nc2c(CC3=CCNC3)ccnc2N(C2CC2)c2ncccc21` gave an IC50 in assay [1] of 640 nM. Besides, the results for the inhibition in assay [2] and in assay [3] were 54% and 26%, respectively.

As for `O=C1Nc2c(COCCc3ccccc3)ccnc2N(C2CC2)c2ncccc21`, in assay [1], the IC50 is 420 nM. In addition, the inhibition in assay [2] was found to be 55%; in assay [3] it was 28%.

As to `O=C1Nc2c(Cn3cccn3)ccnc2N(C2CC2)c2ncccc21`, in assay [1], half-maximal inhibition (IC50) was put at 2200 nM. Further, the values for the inhibition in assay [2] and in assay [3] were 36% and 5%, respectively.

As to `C=CCOCc1ccnc2c1NC(=O)c1cccnc1N2C1CC1`, the IC50 in assay [1] is 1410 nM. In addition, the inhibition in assay [2] was determined as 35%; in assay [3] it was 29%.

In assay [1], `CCN1c2ncccc2C(=O)Nc2c(CO)cc(OC)nc21` displayed an IC50 of 50 nM. The inhibition worked out at 89% in assay [2] and 24% in assay [3].

Compound `O=C1Nc2c(COc3ccccc3O)ccnc2N(C2CC2)c2ncccc21` yielded a 50% inhibitory concentration (IC50) in assay [1] of 460 nM. Further, the values for the inhibition in assay [2] and in assay [3] were 59% and 42%, respectively.

Regarding `CCOCc1ccnc2c1NC(=O)c1cccnc1N2C1CC1`, half-maximal inhibition in assay [1] (IC50) required 1300 nM. Besides, the inhibition in assay [2] was 41%; in assay [3], 29%.

For the compound `O=C1Nc2c(CSCc3ccccc3)ccnc2N(C2CC2)c2ncccc21`, the inhibition in assay [2] was 33%; in assay [3], 28%.

With `CCN1c2ncccc2C(=O)Nc2c(COCc3ccccc3)cc(=O)[nH]c21`, the IC50 in assay [4] was determined as 1070 nM; in assay [1], 110 nM.

`Cc1ccc(Cc2ccnc3c2NC(=O)c2cccnc2N3C2CC2)c(O)c1`: the IC50 in assay [1] stood at 200 nM. Also, the inhibition was 76% in assay [2] and 29% in assay [3].

With `O=C1Nc2c(CNc3ccccc3)ccnc2N(C2CC2)c2ncccc21`, the IC50 worked out at 1370 nM in assay [4] and 60 nM in assay [1]. The inhibition came out at 87% in assay [2] and 41% in assay [3].

With `CCNc1ccc(OCc2ccnc3c2NC(=O)c2cccnc2N3C2CC2)cc1`, the results for the IC50 in assay [4] and in assay [1] were 430 nM and 80 nM, respectively. Also, the inhibition in assay [2] is 88%; in assay [3], 58%.

The compound `O=C1Nc2c(CN3CCCC3)ccnc2N(C2CC2)c2ncccc21` came in with an IC50 in assay [1] of 700 nM. Moreover, the inhibition in assay [2] came to 51%; in assay [3], 16%.

In turn, `O=C1Nc2c(COCc3ccccc3)ccnc2N(C2CC2)c2ncccc21` showed an IC50 in assay [1] of 270 nM. Also, the inhibition worked out at 67% in assay [2] and 37% in assay [3].

Regarding `CCN1c2ncccc2C(=O)Nc2c(COCc3ccccc3)cc(O)nc21`, the inhibition in assay [2] amounted to 83%; in assay [3], 38%.

For the compound `O=C1Nc2c(Cn3ccnc3)ccnc2N(C2CC2)c2ncccc21`, the inhibition is 13% in assay [2] and 20% in assay [3].

Take `O=C(O)/C=C/c1ccnc2c1NC(=O)c1cccnc1N2C1CC1`: the inhibition in assay [2] and in assay [3] was 0% each time.

On to `CCN1c2ncccc2C(=O)Nc2c(Cc3ccccc3)cc(O)nc21`, for which the figures for the inhibition in assay [2] and in assay [3] were 67% and 42%, respectively.

Regarding `CCN1c2ncccc2C(=O)Nc2c(COc3ccccc3)cc(OC)nc21`, 4000 nM corresponded to half-maximal inhibition in assay [1] (IC50). Moreover, the figures for the inhibition in assay [2] and in assay [3] were 44% and 17%, respectively.

Consider `CCN1c2ncccc2C(=O)Nc2c(COc3ccccc3)cc(-c3cccc(OC)c3)nc21`, for which, in assay [1], the IC50 stood at 490 nM. Also, the inhibition in assay [2] was 69%; in assay [3], 37%.

Take `Cc1cccc(OCc2ccnc3c2NC(=O)c2cccnc2N3C2CC2)c1`: 2430 nM corresponded to half-maximal inhibition in assay [1] (IC50). The results for the inhibition in assay [2] and in assay [3] were 38% and 9%, respectively.

What is called IC50 is the concentration that gives 50% inhibition. Low readings indicate inhibition by little substance, high ones a need for much substance. The inhibition is the drop in the measured response relative to a control, in per cent.

The values above are taken from ChEMBL document CHEMBL1128700 (J Med Chem, 1995).
